# Test results as given in ChEMBL document CHEMBL1201862, “PubChem BioAssay data set” (2004).
#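 Step 1: Grow cells in 96-well plates. Step 2: Expose to compound for 48 hours at 5 concentrations. Step 3: Interpolate endpoints linearly; if unreached, use highest concentration. Here, GI50 denotes the concentration required for 50% inhibition of growth.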 The source made the active and inactive calls. No stated cut-off is given here; in the data, active = GI50 up to about 1.1 µM and inactive = higher.
# Tests used:
# Assay in all cases: NCI anticancer screen, dose series, 48 h
# K562 = system: K562
# UACC-257 = system: UACC-257
# SK-MEL-2 = system: SK-MEL-2
# Hs-578T = system: Hs-578T
# TK-10 = system: TK-10
# UO-31 = system: UO-31
# U-251 = system: U-251
# NCI-H522 = system: NCI-H522
# IGROV-1 = system: IGROV-1
# SK-MEL-28 = system: SK-MEL-28
# OVCAR-5 = system: OVCAR-5
# RXF 393 = system: RXF 393
# MOLT-4 = system: MOLT-4
# EKVX = system: EKVX
# SNB-75 = system: SNB-75
# OVCAR-8 = system: OVCAR-8
# MDA-MB-435 = system: MDA-MB-435
# SK-MEL-5 = system: SK-MEL-5
# SNB-19 = system: SNB-19
# HL-60 = system: HL-60
SMILES,GI50 (K562),GI50 (UACC-257),GI50 (SK-MEL-2),GI50 (Hs-578T),GI50 (TK-10),GI50 (UO-31),GI50 (U-251),GI50 (NCI-H522),GI50 (IGROV-1),GI50 (SK-MEL-28),GI50 (OVCAR-5),GI50 (RXF 393),GI50 (MOLT-4),GI50 (EKVX),GI50 (SNB-75),GI50 (OVCAR-8),GI50 (MDA-MB-435),GI50 (SK-MEL-5),GI50 (SNB-19),GI50 (HL-60)
O=C(O)c1c2c(c(O)c3c1CN(C1CCCCC1)CO3)OCN(C1CCCCC1)C2,31.3 µM (inactive),> 100 µM (inactive),> 100 µM (inactive),> 100 µM (inactive),> 100 µM (inactive),> 100 µM (inactive),42.6 µM (inactive),29.1 µM (inactive),74.5 µM (inactive),> 100 µM (inactive),> 100 µM (inactive),63.4 µM (inactive),18.5 µM (inactive),47.1 µM (inactive),> 100 µM (inactive),45.1 µM (inactive),58.1 µM (inactive),> 100 µM (inactive),> 100 µM (inactive),
O=c1oc2ccccc2c(-c2ccc(O)cc2)c1Oc1ccc(Cl)cc1,21 µM (inactive),28.2 µM (inactive),17.9 µM (inactive),16.1 µM (inactive),20.7 µM (inactive),18.1 µM (inactive),22.3 µM (inactive),16.9 µM (inactive),20.3 µM (inactive),15.3 µM (inactive),31.8 µM (inactive),19.4 µM (inactive),,16.8 µM (inactive),18.7 µM (inactive),25.8 µM (inactive),30 µM (inactive),18.3 µM (inactive),22.4 µM (inactive),
C[C@H]1CCCCC[C@@H]2CC(=O)CC2C(=O)CCC(=O)O1 (some centres not stated),> 100 µM (inactive),> 100 µM (inactive),,> 100 µM (inactive),> 100 µM (inactive),,> 100 µM (inactive),> 100 µM (inactive),> 100 µM (inactive),> 100 µM (inactive),> 100 µM (inactive),> 100 µM (inactive),> 100 µM (inactive),> 100 µM (inactive),9.02 µM (inactive),> 100 µM (inactive),> 100 µM (inactive),> 100 µM (inactive),> 100 µM (inactive),> 100 µM (inactive)
COc1ccc(C2Oc3c(cccc3OC)C=C2[N+](=O)[O-])cc1 (configuration not stated),0.668 µM (active),2.96 µM (inactive),,2.58 µM (inactive),2.91 µM (inactive),1.71 µM (inactive),1.86 µM (inactive),1.32 µM (inactive),3.33 µM (inactive),1.91 µM (inactive),2.26 µM (inactive),1.4 µM (inactive),1.19 µM (inactive),10.6 µM (inactive),,2.49 µM (inactive),2.12 µM (inactive),1.51 µM (inactive),3.99 µM (inactive),2.17 µM (inactive)
CC1(C)C2C=CC1(C)C1(CC2)OCCO1 (configuration not stated),> 100 µM (inactive),> 100 µM (inactive),> 100 µM (inactive),> 100 µM (inactive),> 100 µM (inactive),> 100 µM (inactive),> 100 µM (inactive),,> 100 µM (inactive),> 100 µM (inactive),> 100 µM (inactive),> 100 µM (inactive),> 100 µM (inactive),,66.1 µM (inactive),> 100 µM (inactive),> 100 µM (inactive),,> 100 µM (inactive),> 100 µM (inactive)
O=Cc1ccc(OCc2cccc(COc3ccc(/C=N\Nc4ccc([N+](=O)[O-])cc4[N+](=O)[O-])cc3)n2)cc1,> 100 µM (inactive),> 100 µM (inactive),89.5 µM (inactive),> 100 µM (inactive),> 100 µM (inactive),> 100 µM (inactive),63.5 µM (inactive),> 100 µM (inactive),> 100 µM (inactive),> 100 µM (inactive),> 100 µM (inactive),43.2 µM (inactive),33.9 µM (inactive),> 100 µM (inactive),,61 µM (inactive),> 100 µM (inactive),> 100 µM (inactive),> 100 µM (inactive),> 100 µM (inactive)
O=c1cc(NNCc2ccccc2)[nH]c(=O)[nH]1,> 100 µM (inactive),> 100 µM (inactive),,58.1 µM (inactive),> 100 µM (inactive),74 µM (inactive),> 100 µM (inactive),,> 100 µM (inactive),> 100 µM (inactive),> 100 µM (inactive),> 100 µM (inactive),69.2 µM (inactive),> 100 µM (inactive),,> 100 µM (inactive),> 100 µM (inactive),> 100 µM (inactive),> 100 µM (inactive),> 100 µM (inactive)
CCOP(=O)(OCC)C(C)(C)OC(=O)NC(F)(F)F,> 100 µM (inactive),> 100 µM (inactive),> 100 µM (inactive),> 100 µM (inactive),> 100 µM (inactive),> 100 µM (inactive),> 100 µM (inactive),,> 100 µM (inactive),> 100 µM (inactive),> 100 µM (inactive),> 100 µM (inactive),> 100 µM (inactive),> 100 µM (inactive),> 100 µM (inactive),> 100 µM (inactive),> 100 µM (inactive),> 100 µM (inactive),> 100 µM (inactive),> 100 µM (inactive)
CNC(=O)CCC(NC(C)=O)C(=O)NC(Cc1ccc(NC(=O)CCCCC(C)=O)cc1)C(=O)NC(CCC(=O)NC)C(=O)NC (configuration not stated),> 100 µM (inactive),,,40.2 µM (inactive),> 100 µM (inactive),> 100 µM (inactive),> 100 µM (inactive),> 100 µM (inactive),> 100 µM (inactive),> 100 µM (inactive),> 100 µM (inactive),> 100 µM (inactive),> 100 µM (inactive),> 100 µM (inactive),,> 100 µM (inactive),> 100 µM (inactive),> 100 µM (inactive),> 100 µM (inactive),> 100 µM (inactive)
CCOC(=O)C1(C(=O)OCC)OC(C)=NC1(C(=O)OC)C(=O)OC,> 100 µM (inactive),> 100 µM (inactive),> 100 µM (inactive),> 100 µM (inactive),> 100 µM (inactive),> 100 µM (inactive),> 100 µM (inactive),,> 100 µM (inactive),> 100 µM (inactive),> 100 µM (inactive),> 100 µM (inactive),> 87.1 µM (inactive),> 26.2 µM (inactive),> 32.5 µM (inactive),> 100 µM (inactive),> 100 µM (inactive),> 53.7 µM (inactive),> 100 µM (inactive),1.15 µM (inactive)
c1ccc(C2C3=C(CCCC3)Nc3nnnn32)cc1 (configuration not stated),32.4 µM (inactive),> 100 µM (inactive),34.4 µM (inactive),64 µM (inactive),,> 100 µM (inactive),> 100 µM (inactive),,> 100 µM (inactive),,> 100 µM (inactive),0.226 µM (active),53 µM (inactive),,,> 100 µM (inactive),72.6 µM (inactive),48.9 µM (inactive),> 100 µM (inactive),33.1 µM (inactive)
CC[C@]12C=CCN3CC[C@@]4(c5cc(Br)c(OC)cc5N(C)[C@H]4[C@@](O)(C(=O)N[C@@H](Cc4ccc(O)cc4)C(=O)OC)[C@@H]1O)[C@@H]32,43 µM (inactive),16.3 µM (inactive),20.1 µM (inactive),20.7 µM (inactive),22.6 µM (inactive),27.2 µM (inactive),14.6 µM (inactive),17.7 µM (inactive),19.5 µM (inactive),> 100 µM (inactive),45.5 µM (inactive),17.6 µM (inactive),14.2 µM (inactive),29.2 µM (inactive),,24.9 µM (inactive),16.4 µM (inactive),17.6 µM (inactive),> 100 µM (inactive),26.7 µM (inactive)
COC(OC)C(O)C1OC=CC1n1cnc2c(N)ncnc21 (configuration not stated),> 100 µM (inactive),> 100 µM (inactive),> 100 µM (inactive),> 100 µM (inactive),> 100 µM (inactive),0.792 µM (active),> 100 µM (inactive),,> 100 µM (inactive),> 100 µM (inactive),,13 µM (inactive),> 100 µM (inactive),> 100 µM (inactive),18.3 µM (inactive),,> 100 µM (inactive),> 100 µM (inactive),,
C#CCCOC(=O)c1ccccc1OC(C)=O,> 100 µM (inactive),> 100 µM (inactive),> 100 µM (inactive),> 100 µM (inactive),> 100 µM (inactive),> 100 µM (inactive),> 100 µM (inactive),63.7 µM (inactive),> 100 µM (inactive),,> 100 µM (inactive),> 100 µM (inactive),> 100 µM (inactive),> 100 µM (inactive),> 100 µM (inactive),> 100 µM (inactive),> 100 µM (inactive),> 100 µM (inactive),> 100 µM (inactive),
COc1ccc(/C=C2\CCC(C)C3=C(c4ccc(OC)c(OC)c4)C(C#N)=C(N)OC32)cc1OC (configuration not stated),3.78 µM (inactive),4.18 µM (inactive),1.97 µM (inactive),4.42 µM (inactive),4.04 µM (inactive),2.4 µM (inactive),3.58 µM (inactive),,2.39 µM (inactive),3.86 µM (inactive),2.75 µM (inactive),1.65 µM (inactive),2.55 µM (inactive),1.86 µM (inactive),2.33 µM (inactive),4.01 µM (inactive),2.7 µM (inactive),2.01 µM (inactive),7.94 µM (inactive),2.63 µM (inactive)
